Laboratory results: patent US12005033B2, “Compositions comprising mixtures of semifluorinated alkanes” (Novaliq GmbH, priority 2012, dated 2024)

Experiment: Liquid droplet spread area on a glass surface
Type: physicochemical
Conditions: 2 minutes after application of 50 μL of liquid to a glass surface

Compound	Liquid covered surface area
FC1(F)C(F)(F)C(F)(F)C2(F)C(F)(F)C(F)(F)C(F)(F)C(F)(F)C2(F)C1(F)F (stereo not shown) [Perfluorodecalin, reference compound]	1.45 ± 0.02 cm^2
CCCCCC(F)(F)C(F)(F)C(F)(F)C(F)(F)F [F4H5, F(CF2)4(CH2)5H]	7.54 ± 0.33 cm^2
CCCCCCCCC(F)(F)C(F)(F)C(F)(F)C(F)(F)C(F)(F)C(F)(F)F [F6H8, F(CF2)6(CH2)8H]	12.89 ± 0.94 cm^2
CCCCCCCCC [Nonane, reference compound]	5.20 ± 0.18 cm^2
